Test results reported in patent US8658648B2, “Modified chloroquines with single ring moiety or fused ring moiety” (DesignMedix, Inc., priority 2008, dated 2014).
Like-named read-outs stand apart in the source and are kept apart here.

Columns and labels:
[1] = system: D6 (CQ^S) P. falciparum strain; experiment: In vitro fluorescence (Sybr Green I) assay for IC50 against D6 strain; type: cell-based; details: Plasmodium falciparum, read-out: IC50-D6
Description: (§1) This method employs fluorescent detection of the level of parasitemia in cultured red blood cells and can be automated for high-throughput screening of antimalarial RCQs. This exemplary method allows the inhibitory agent (such as a MCQ) to be in contact with the parasite for an entire developmental cycle without purine starvation, which is in contrast to the traditional ^3H-hypoxanthine method (Desjardins et al. 1979. Antimicrob. Agents Chemother. 16(6):710-718, which is incorporated herein by reference in its entirety). Briefly, to perform the Smilkstein et al. method, an initial parasitemia of approximately 0.2% is attained by adding uninfected red blood cells (RBCs) to a stock culture of Plasmodium-infected RBCs. […] After a period of incubation (such as about 72 hours), a sufficient amount (e.g., 100 μL) of a fluorescent DNA binding dye-detergent mixture (e.g., Sybr Green I dye-detergent mixture) to lyse cells and bind to DNA is added to the reactions. Because uninfected RBCs have no DNA, only parasite DNA (in infected RBCs) is available for binding to the fluorescent dye (e.g., Sybr Green I). Samples are then incubated in the dark for a period of time (e.g., one hour), followed by measurement of levels of fluorescence. For Sybr Green 1, excitation and emission wavelength are 485 and 530 nm, respectively. Fluorescence readings, which represent the amount of parasite DNA in the sample, can be plotted against the Log [drug] and fit to a curve by nonlinear regression to obtain the IC50 value for the tested compound.
(§2) An in vitro fluorescence assay for determining IC50 of antimalarial drugs was performed as previously described by Smilkstein et al. (2004. Antimicrob. Agents Chemother. 48(5):1803-1806). This procedure can be automated for high-throughput screening of the antimalarial activities of RCQs described herein. This method also allows the tested agent (e.g., a MCQ) to be in contact with the parasite for an entire developmental cycle without purine starvation (which occurs with the commonly used ^3H-hypoxanthine method; see, e.g., Desjardins et al. 1979. Antimicrob. Agents Chemother. 16, (6):710-7188).
(§3) Briefly, an initial parasitemia of approximately 0.2% was attained by addition of uninfected red blood cells to a stock culture of cells infected with Dd2 (CQ^R), 7G8 (CQ^R), or D6 (CQ^S) P. falciparum strains. A 10 mM solution of a test compound (in DMSO) was prepared. The test compound (at a final concentration from 10^−11 to 10^−4 M) and infected red blood cells (at a final concentration of 2% (v/v)) were mixed in 100 μL samples in individual wells of a 96-well plate. Each sample was prepared in triplicate. A triplicate set of reactions containing CQ (instead of the test compound) was included as a control. After a 72 hour incubation period, Sybr Green I dye-detergent mixture (100 μL) was added to each reaction. The samples were further incubated for an hour in the dark, and then placed in a 96-well fluorescence plate reader (Gemini-EM, […]) and analyzed with excitation and emission wavelength bands at 485 and 530 nm, respectively. Fluorescence readings were plotted against the Log [drug], and curve fitting performed by nonlinear regression to find the IC50 value.

[2] = system: Dd2 (CQ^R) P. falciparum strain; experiment: In vitro fluorescence (Sybr Green I) assay for IC50 against Dd2 strain; type: cell-based; details: Plasmodium falciparum, read-out: IC50-Dd2
Description: as §1, §2, §3

[3] = system: 7G8 (CQ^R) P. falciparum strain; experiment: In vitro fluorescence (Sybr Green I) assay for IC50 against 7G8 strain; type: cell-based; details: Plasmodium falciparum, read-out: IC50-7G8
Description: as §1, §2, §3

[4] = system: mitogen-induced marine spleen lymphocytes; type: cell-based; details: LC50; mouse spleen lymphocytes, 72 hours incubation, then resazurin 24 hours
Description: Mouse spleen lymphocytes were isolated from C57B1/6J mice by teasing tissues on a metallic sieve screen. […] Two hundred (200) μl isolated cells were then seeded in separate wells of a 96-well flat-bottom tissue culture plate at a density of 2×10^5 cells per well. […] After 72 hours incubation in a humidified atmosphere at 37° C. and 5% CO2, a solution of resazurin PBS was added to a final concentration 10 μM, and the plates were returned to the incubator for another 24 hours. Resazurin is a substrate which changes color in response to metabolic activity (such as that found in living cells). […] LC50 values were determined from plots of florescence versus drug concentration using non-linear regression by Prism software.

P. berghei = experiment: In vivo activity in mice against P. berghei (survival); details: second 4× oral dose experiment, dosage equimolar to 30 mg/kg CQ; monitored up to 30 days
P. falciparum strain D6 = details: cited from earlier work; also: key: S = sensitive; R = resistant; S/R = intermediate level of resistance
[5] = system: P. falciparum strain FCR3; details: cited from earlier work; also: key: S = sensitive; R = resistant; S/R = intermediate level of resistance
P. falciparum strain W2 = details: cited from earlier work; also: key: S = sensitive; R = resistant; S/R = intermediate level of resistance
P. falciparum strain Dd2 = details: cited from earlier work; also: key: S = sensitive; R = resistant; S/R = intermediate level of resistance
P. falciparum strain 3D7 = details: cited from earlier work; also: key: S = sensitive; R = resistant; S/R = intermediate level of resistance
[6] = system: P. falciparum strain TM91C235; details: cited from earlier work; also: key: S = sensitive; R = resistant; S/R = intermediate level of resistance
P. falciparum strain 7G8 = details: cited from earlier work; also: key: S = sensitive; R = resistant; S/R = intermediate level of resistance

`Clc1ccc2c(NCCCN3CCN(c4ccccn4)CC3)ccnc2c1` [7-chloro-N-(3-(4-(pyridin-2-yl)piperazin-1-yl)propyl)quinolin-4-amine] gave an IC50 ([1]; Erythrocyte, D6 (CQ^S) strain in infected red blood cells, 72 hour incubation) of 2.7 nM, an IC50 ([2]; Erythrocyte, Dd2 (CQ^R) strain in infected red blood cells, 72 hour incubation) of 4.8 nM and an IC50 ([3]; Erythrocyte, 7G8 (CQ^R) strain in infected red blood cells, 72 hour incubation) of 9.5 nM. For the same molecule, the Cytotoxicity [4] was 8.6 µM and the “average survival for the mice” value (P. berghei) was 20 days.
Molecule `CCN(CC)CCCC(C)Nc1ccnc2cc(Cl)ccc12` (stereo not drawn) [Chloroquine, chloroquine] has an IC50 ([1]; D6, Erythrocyte, 72 h) of 6.9 nM, an IC50 ([2]; DD2, Erythrocyte, 72 h) of 102 nM and an IC50 ([3]; 7G8, Erythrocyte, 72 h) of 106 nM. The “Drug susceptibility of P. falciparum strain D6” value (P. falciparum strain D6) was “S”, the “Drug susceptibility of P. falciparum strain FCR3” value [5] was “R” and the “Drug susceptibility of P. falciparum strain W2” value (P. falciparum strain W2) was “R”. The “Drug susceptibility of P. falciparum strain Dd2” value (P. falciparum strain Dd2) was “R”, the “Drug susceptibility of P. falciparum strain 3D7” value (P. falciparum strain 3D7) was “S” and the “Drug susceptibility of P. falciparum strain TM91C235” value [6] was “R”. For the same molecule, the “Drug susceptibility of P. falciparum strain 7G8” value (P. falciparum strain 7G8) was “R”.
